{"source": "paper PMC5345022", "about": "(Scientific Reports, 2017)", "key": {"[1]": {"target": "T1, human dopamine D2L receptor (Homo sapiens, UniProt P14416)", "T1 sequence (P14416 whole entry)": "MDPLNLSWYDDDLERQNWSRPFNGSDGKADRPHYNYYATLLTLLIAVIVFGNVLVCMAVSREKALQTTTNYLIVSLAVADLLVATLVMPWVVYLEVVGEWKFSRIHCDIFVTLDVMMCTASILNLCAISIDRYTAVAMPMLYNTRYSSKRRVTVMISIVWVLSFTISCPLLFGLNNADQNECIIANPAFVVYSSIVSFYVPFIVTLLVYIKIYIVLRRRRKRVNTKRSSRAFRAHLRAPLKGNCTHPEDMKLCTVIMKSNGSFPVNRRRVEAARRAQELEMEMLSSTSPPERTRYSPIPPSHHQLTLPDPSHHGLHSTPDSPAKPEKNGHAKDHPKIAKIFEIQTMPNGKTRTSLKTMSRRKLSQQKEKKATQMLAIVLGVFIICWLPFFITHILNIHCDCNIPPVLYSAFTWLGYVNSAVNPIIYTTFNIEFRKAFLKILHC", "assay": "Radioligand binding assay with [3H]spiperone, membranes of CHO cells stably expressing the receptor", "conditions": "for binding affinity (in words): D2R radioligand binding", "quoted_text": "(§2) Receptor binding studies were carried out as described previously[43][44].\n(§3) The resulting competition curves of the receptor binding experiments were analysed by nonlinear regression using the algorithms in PRISM 6.0 (GraphPad Software, San Diego, CA). […] IC50 values were transformed to Ki values according to the equation of Cheng and Prusoff[48]."}, "[2]": {"target": "T2, dopamine receptor subtype D2S (Homo sapiens, UniProt P14416)", "T2 sequence (P14416 1-414 isoform P14416-2)": "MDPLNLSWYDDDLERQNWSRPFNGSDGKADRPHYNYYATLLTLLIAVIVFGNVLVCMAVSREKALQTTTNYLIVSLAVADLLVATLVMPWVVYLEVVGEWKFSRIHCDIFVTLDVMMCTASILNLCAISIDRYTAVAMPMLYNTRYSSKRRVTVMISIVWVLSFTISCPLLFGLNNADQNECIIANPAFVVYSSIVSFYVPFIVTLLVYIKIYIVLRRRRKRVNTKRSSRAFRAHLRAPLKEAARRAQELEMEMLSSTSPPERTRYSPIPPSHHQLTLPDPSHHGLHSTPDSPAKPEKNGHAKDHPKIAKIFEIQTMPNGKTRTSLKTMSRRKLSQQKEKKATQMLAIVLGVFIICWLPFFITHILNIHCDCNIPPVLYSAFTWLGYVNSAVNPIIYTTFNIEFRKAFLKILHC", "assay": "cAMP inhibition assay: inhibition of forskolin-stimulated cAMP accumulation (CAMYEL BRET sensor)", "format": "cell-based", "design": "expressed in transfected cells; host or cells: HEK293T cells, transient co-transfection with the CAMYEL sensor", "conditions": "for Emax / Inhibition of forskolin-stimulated cAMP accumulation Emax (%): maximum effect relative to the effect of quinpirole", "procedure": "HEK293T cells were transiently co-transfected with pcDNA3L-His-CAMYEL[45] (purchased from ATCC, Manassas, VA via LGC Standards, Wesel, Germany) and D2s receptor, respectively, and the assay was performed according to literature. Twenty-four hours after transfection cells were split into white half-area 96-well plates at 2 × 10^5 cells/well and grown overnight in a phenol-red free medium supplemented with serum (Invitrogen, Darmstadt, Germany). On the day of measurement, the medium was removed and replaced by phosphate buffered saline (PBS). The cells were serum-starved for 1 h before treatment. The assay was started by adding 10 μL of coelenterazine-h (Promega, Mannheim, Germany) to each well to yield a final concentration of 5 μM. After 5 min of incubation, test compounds were added in PBS containing forskolin at a final concentration of 10 μM. After an incubation time of 15 min, BRET measurement was performed with a CLARIOstar plate reader (BMG LabTech, Ortenberg, Germany). […] Curves were normalised to basal BRET ratio obtained from dPBS (0%) and the maximum effect of the reference ligand quinpirole (100%).\nData from cAMP measurements were analysed by normalising the BRET ratios with 0% for the unstimulated receptor and 100% for the full effect of the reference ligand quinpirole. Dose-response curves were calculated by nonlinear regression using the algorithms of PRISM 6.0.\n(§1) From each curve, a set of mean values was derived and pooled to result in an average curve showing the EC50 and Emax value, respectively."}, "[3]": {"target": "T2, dopamine receptor subtype D2S", "assay": "β-Arrestin-2 recruitment assay (PathHunter), agonist and antagonist mode", "format": "cell-based", "design": "expressed in transfected cells", "conditions": "for Emax: D2S-mediated recruitment of β-arrestin-2, PathHunter assay, relative to the maximum effect of quinpirole; for β-arrestin recruitment (in words): agonist mode", "procedure": "The measurement of β-arrestin-2 recruitment stimulated by D2R activation was performed using the PathHunter® assay purchased from DiscoveRx (Birmingham, U.K.) according to the manufacturer’s protocol as described previously.\nThe amount of recruitment of β-arrestin was derived from the agonist-induced increase of chemiluminescence, which was expressed in counts per second (cps). Dose-response curves were normalised to basal cps stimulated by buffer (=0%) and the effect of the maximum effect of the reference compound quinpirole (=100%).\nas §1"}, "[4]": {"target": "T1, human dopamine D2L receptor", "assay": "biochemical", "quoted_text": "as §2, §3"}}, "note": "“Also recorded” adds a separate entry of the source.", "data": [{"smiles": "CC[C@H]1CN2CCc3cc(OC)c(OC)cc3[C@@H]2C[C@@H]1C[C@H]1NCCc2cc(OC)c(OC)cc21", "note": "[Emetine, reference compound]", "values": [{"measurement": "Ki", "setting": "[1]", "result": 37, "unit": "µM"}]}, {"smiles": "CC(Cc1ccc(C(C)(C)C)cc1)CN1C[C@@H](C)O[C@@H](C)C1", "note": "(stereo partly shown) [Fenpropimorph]", "values": [{"measurement": "Ki", "setting": "[1]", "result": "> 100", "unit": "µM"}]}, {"smiles": "CC(=O)OC1C(C)CN(C)C2Cc3c[nH]c4cccc(c34)C12", "note": "(stereo not shown) [Fumigaclavine A]", "values": [{"measurement": "EC50", "setting": "[2]", "result": 0.25, "unit": "µM"}, {"measurement": "agonist activity in the cAMP accumulation assay / Gi/o activation (in words)", "setting": "[2]; D2S expressed in HEK cells", "result": "weak partial agonists"}, {"measurement": "agonist activity in the cAMP accumulation assay / Gi/o activation (in words)", "setting": "[2]; D2S expressed in HEK cells, listed as fumigaclavine A", "result": "partial agonism in Gi/o activation"}, {"measurement": "Emax", "setting": "[3]", "result": "< 7", "unit": "%"}, {"measurement": "β-arrestin recruitment (in words)", "setting": "[3]", "result": "did not show β-arrestin recruitment"}, {"measurement": "Ki", "setting": "[1]", "result": 1.1, "unit": "µM"}, {"measurement": "Ki value relative to the endogenous ligand dopamine", "setting": "[1]; D2L radioligand binding", "result": "seven times higher"}]}, {"smiles": "N=C(N/N=C/c1ccc(Cl)cc1)N/N=C/c1ccc(Cl)cc1", "note": "[Robenidine, reference compound]", "values": [{"measurement": "agonist activity in the cAMP accumulation assay / Gi/o activation (in words)", "setting": "[2]; D2S expressed in HEK cells", "result": "could not observe any activation; also recorded: did not show any activation"}, {"measurement": "Emax", "setting": "[2]; HEK293, D2S expressed in HEK cells, read-out: Inhibition of forskolin-stimulated cAMP accumulation Emax (%)", "result": "< 5", "unit": "%"}, {"measurement": "Ki", "setting": "[4]", "result": 5.4, "unit": "µM"}, {"measurement": "Emax", "setting": "[3]", "result": "< 7", "unit": "%"}, {"measurement": "β-arrestin recruitment (in words)", "setting": "[3]", "result": "could not observe any activation; also recorded: did not show any activation"}, {"measurement": "binding affinity (in words)", "setting": "[1]", "result": "low micromolar range"}]}, {"smiles": "NCc1cc(=O)[nH]o1", "note": "[Muscimol]", "values": [{"measurement": "Ki", "setting": "[1]", "result": "> 100", "unit": "µM"}]}, {"smiles": "O=C(CC1NCCCC1O)Cn1cnc2cc(Br)c(Cl)cc2c1=O", "note": "(stereo not shown) [Halofuginone, reference compound]", "values": [{"measurement": "Ki", "setting": "[1]", "result": "> 50", "unit": "µM"}]}, {"smiles": "O=C(O)c1cn(-c2ccc(F)cc2)c2cc(N3CCNCC3)c(F)cc2c1=O", "note": "[Sarafloxacin, reference compound]", "values": [{"measurement": "Ki", "setting": "[4]", "result": "> 100", "unit": "µM"}]}, {"smiles": "C=CC(C)(C)[C@@]12C[C@H]3C(=O)N/C(=C/c4c[nH]cn4)C(=O)N3[C@@H]1Nc1ccccc12", "note": "[Roquefortine C]", "values": [{"measurement": "Ki", "setting": "[4]", "result": "> 100", "unit": "µM"}]}, {"smiles": "COc1ccc2c(c1OC)CN1CCc3cc4c(cc3C1=C2)OCO4", "note": "[Dihydroberberine]", "values": [{"measurement": "Ki", "setting": "[4]", "result": 75, "unit": "µM"}]}, {"smiles": "COc1cc(C(=O)OCCCCNC(=N)N)cc(OC)c1O", "note": "[Leonurine]", "values": [{"measurement": "Ki", "setting": "[4]", "result": "> 100", "unit": "µM"}]}, {"smiles": "CN(C)CCc1ccc(O)cc1", "note": "[Hordenine]", "values": [{"measurement": "EC50", "setting": "[2]", "result": 3.7, "unit": "µM"}, {"measurement": "agonist activity in the cAMP accumulation assay / Gi/o activation (in words)", "setting": "[2]; D2S expressed in HEK cells", "result": "shows agonist properties; also recorded: almost full D2R-agonist in Gi/o activation"}, {"measurement": "Emax", "setting": "[2]; HEK293, read-out: Inhibition of forskolin-stimulated cAMP accumulation Emax (%), D2S expressed in HEK cells", "result": 76, "unit": "%"}, {"measurement": "Emax", "setting": "[3]", "result": "< 7", "unit": "%"}, {"measurement": "β-arrestin recruitment (in words)", "setting": "[3]", "result": "did not show significant β-arrestin recruitment; also recorded: no β-arrestin-2 recruitment was determined"}, {"measurement": "antagonism of quinpirole-stimulated β-arrestin-2 recruitment (in words)", "setting": "[3]; antagonist mode: 30 min pre-incubation, then 300 nM quinpirole", "result": "antagonised D2-mediated β-arrestin recruitment; also recorded: antagonistic activity; also recorded: completely antagonised quinpirole-stimulated recruitment; also recorded: antagonism in β-arrestin recruitment"}, {"measurement": "Ki", "setting": "[1]", "result": 13, "unit": "µM"}, {"measurement": "binding affinity (in words)", "setting": "[1]", "result": "low micromolar range"}]}, {"smiles": "COC(=O)C1=CO[C@@H](C)[C@H]2CN3CCc4c([nH]c5ccccc45)[C@@H]3C[C@H]12", "note": "[Ajmalicine]", "values": [{"measurement": "Ki", "setting": "[4]", "result": "> 100", "unit": "µM"}]}, {"smiles": "O=C(CCc1ccc(O)c(O)c1)NCCCNCCCCNCCCNC(=O)CCc1ccc(O)c(O)c1", "note": "[Kukoamine A]", "values": [{"measurement": "Ki", "setting": "[4]", "result": "> 100", "unit": "µM"}]}, {"smiles": "CC1NCCc2cc(O)c(O)cc21", "note": "(stereo not shown) [Salsolinol]", "values": [{"measurement": "agonist activity in the cAMP accumulation assay / Gi/o activation (in words)", "setting": "[2]; D2S expressed in HEK cells", "result": "weak partial agonists; also recorded: partial agonism in Gi/o activation"}, {"measurement": "Inhibition of forskolin-stimulated cAMP accumulation Emax (%)", "setting": "[2]; D2S expressed in HEK cells", "result": 21, "unit": "%"}, {"measurement": "Inhibition of forskolin-stimulated cAMP accumulation Emax (%)", "setting": "[2]; D2S expressed in HEK cells, listed as salsolinol", "result": "below 50%"}, {"measurement": "Emax", "setting": "[3]", "result": "< 7", "unit": "%"}, {"measurement": "β-arrestin recruitment (in words)", "setting": "[3]", "result": "did not show β-arrestin recruitment"}]}, {"smiles": "N[C@@H](CCCCn1c(C=O)ccc1CO)C(=O)O", "note": "[Pyrraline]", "values": [{"measurement": "Ki", "setting": "[4]", "result": "> 100", "unit": "µM"}]}, {"smiles": "CC(C)(C)NCC(O)c1cc(Cl)c(N)c(Cl)c1", "note": "(stereo not shown) [Clenbuterol, reference compound]", "values": [{"measurement": "Ki", "setting": "[1]", "result": 50, "unit": "µM"}]}, {"smiles": "Oc1cc(O)c2cc(O)c(-c3cc(O)c(O)c(O)c3)[o+]c2c1", "note": "[Delphinidin]", "values": [{"measurement": "Ki", "setting": "[4]", "result": 26, "unit": "µM"}, {"measurement": "Emax", "setting": "[3]", "result": "< 7", "unit": "%"}]}]}
